Experimental data published in paper PMC11695783 (Frontiers in Pharmacology, 2024).
Where “and” joins values, the source holds several entries; their conditions need not be identical. Identical values can stand only once.

Test: Pharmacokinetic studies in mice (intravenous and intramuscular, plasma, HPLC-MS/MS)
Format: in vivo, BALB/c mice
Design: AUClast / AUCall / AUCINF_obs / AUCINF_pred / AUCINFobs: concentration or dose not given beside the values; Tlast / Clast / AUMClast / AUMCINF_obs / AUMCINF_pred / Lambda_z / HL_Lambda_z / Cl_obs / Cl_pred / Cl_F_obs / Tlag / Cl_F_pred: unit not given here
Conditions: IV; for plasma concentration: individual mice 1-8; for plasma concentration, AV: average of mice
Experimental: Pharmacokinetic experimental procedures of compound 16C were measured according to previous reports with some modifications ([Wang et al., 2022]). In brief, BALB/c mice were divided into two groups of eight mice each; one group was injected intravenously and the other was injected intramuscularly with compound 16C at a dose of 10 mg/kg. The dose was based on previous studies of novel pleuromutilin derivatives ([Jin et al., 2019]; [Wang et al., 2022]). Meanwhile, the dose of tiamulin approved by the European Union for intramuscular administration is 10–20 mg/kg ([EMA, 1999]). The volume of the injection was 0.1 mL/10 g. The compound 16C formulation was a filtered solution in 5% DMSO, 5% Tween-80, and 90% normal saline. Blood was obtained from eight mice via the ocular venous plexus at 0.083, 0.167, 0.25, 0.334, 0.5, 0.75, 1, 1.5, 2, 3, 4, 6, 8, and 12 h following tail intravenous or thigh Intramuscular injection. A glass capillary with a diameter of 0.3 mm was inserted into the outer canthus of the mouse, and 200 μL blood was collected using a 1.5 mL anticoagulant centrifuge tube. The blood was centrifuged at 3,000 rpm for 10 min to obtain plasma. 100 μL of plasma was aspirated for drug concentration detection, and eight parallel samples from different mice were obtained at each time point.
All pharmacokinetic experimental samples and method validation samples were added with 4 times the volume of acetonitrile and shaken for 1 min, centrifuged at high speed at 13,000× g for 10 min, and the supernatants were taken and filtered to detect the drug concentration. Some samples with high concentrations were diluted to the linear range prior to analysis.
The extracted samples were analyzed using a high-performance liquid chromatography-tandem mass spectrometry (HPLC-MS/MS) system (Agilent, Santa Clara, CA, United States) 1200 HPLC and Applied Biosystems (Waltham, MA, United States) API 4000 mass spectrometer). HPLC-MS/MS analysis using a Zorbax Eclipse XDB-C18 (4.6 × 50 mm, 3.5 μm) column (Agilent). The mobile phase A (acetonitrile) and B (water) were applied as a gradient as follows: 0–3 min: 15%–95% A and maintain from 3 min to 5 min at 95% A. 5–5.1 min: 95%–15% A and maintain from 5.1 to 10 min at 15% A. Flow rate: 500 μL/min; column temperature: 30°C and injection volume: 4 μL. The electrospray ionization (ESI) source of the mass spectrometer was operated in […], with the following ion source parameters: ion spray voltage 4,500 V, collision gas 7 psi, ion source gas 1 55 psi, ion source gas 2 40 psi, curtain gas 20 psi, source temperature 600°C. The precursor ion m/z of Compound 16C was 633.3, and the product ions m/z were 272.0 (quantifier) 286.9 and 313.0. Declustering potentials (DP) were 140, 140, and 144 V, respectively; entrance potential (EP) was 10 V; collision energy (CE) was 55, 46, and 15 V, respectively; and collision cell exit potential (CXP) was 14 V.
[…] Pharmacokinetic parameters include time to maximum concentration (Tmax), maximum concentration (Cmax), the area under the plasma concentration–time curve (AUC0-∞), clearance rate (CL), the apparent volume of distribution (Vd), bioavailability (F), elimination half-life (T1/2kel) and absorption half-life (T1/2ka).

**Q.** Which results are given for C=C[C@]1(C)C[C@@H](OC(=O)CSc2ccc(NC(=O)Cc3ccc([N+](=O)[O-])cc3)cc2)[C@]2(C)[C@H](C)CC[C@]3(CCC(=O)[C@H]32)[C@@H](C)[C@@H]1O?
**A.** plasma concentration (0.083h): 4.18 ng/mL and 5.51 ng/mL and 3.62 ng/mL and 4.5 ng/mL and 6.77 ng/mL and 4.82 ng/mL and 6.27 ng/mL and 4.14 ng/mL; plasma concentration, AV (0.17h): 2.954 ng/mL; plasma concentration (0.17h): 2.24 ng/mL and 3.08 ng/mL and 2.67 ng/mL and 1.93 ng/mL and 4.06 ng/mL and 3.1 ng/mL and 3.5 ng/mL and 3.05 ng/mL; plasma concentration, AV (0.25h): 1.9525 ng/mL; plasma concentration (0.25h): 1.53 ng/mL and 1.91 ng/mL and 1.97 ng/mL and 1.44 ng/mL and 2.52 ng/mL and 1.83 ng/mL and 2.17 ng/mL and 2.25 ng/mL; plasma concentration, AV (0.33h): 1.413 ng/mL; plasma concentration (0.33h): 1.05 ng/mL and 1.59 ng/mL and 1.43 ng/mL and 0.752 ng/mL and 1.83 ng/mL and 1.19 ng/mL and 1.81 ng/mL and 1.65 ng/mL; plasma concentration, AV (0.5h): 0.9296 ng/mL; plasma concentration (0.5h): 0.563 ng/mL and 0.856 ng/mL and 1.02 ng/mL and 0.564 ng/mL and 1.49 ng/mL and 0.788 ng/mL and 0.986 ng/mL and 1.17 ng/mL; plasma concentration, AV (0.75h): 0.4375 ng/mL; plasma concentration (0.75h): 0.295 ng/mL and 0.454 ng/mL and 0.34 ng/mL and 0.281 ng/mL; plasma concentration, AV (1h): 0.1263 ng/mL; plasma concentration, AV (1.5h): 0.0633 ng/mL; plasma concentration, AV (2h): 0.03673 ng/mL; plasma concentration, AV (3h): 0.01748 ng/mL; plasma concentration, AV (4h): 0.01406 ng/mL; plasma concentration, AV (6h): 0.005976 ng/mL; plasma concentration, AV (8h): 0.004256 ng/mL; plasma concentration, AV (12h): 0.002617 ng/mL; AUCINF_obs (individual mice): 1731 and 1454.8 and 1871.31 and 1501.72 and 1496.6 and 2594.18 and 1738.12 and 2317.09; AUCINF_pred (individual mice): 1730.96 and 1454.56 and 1871.3 and 1501.69 and 1496.6 and 2594.16 and 1737.96 and 2317.08; AUC_%Back_Ext_obs (individual mice): 23.2101% and 33.5458% and 33.5029% and 23.3787% and 40.4621% and 28.4699% and 29.0426% and 30.8151%; AUC_%Back_Ext_pred (individual mice): 23.2107% and 33.5513% and 33.5032% and 23.3791% and 40.462% and 28.47% and 29.0454% and 30.8152%; AUC_%Extrap_obs (individual mice): 1.0811% and 0.9306% and 0.1046% and 0.8821% and 0.3771% and 0.7545% and 1.237% and 1.2773%; AUC_%Extrap_pred (individual mice): 1.0785% and 0.9144% and 0.1039% and 0.8804% and 0.3773% and 0.754% and 1.2276% and 1.277%; AUCall (individual mice): 1712.29 and 1441.26 and 1869.35 and 1488.47 and 1490.96 and 2574.6 and 1716.62 and 2287.49; AUClast (individual mice): 1712.29 and 1441.26 and 1869.35 and 1488.47 and 1490.96 and 2574.6 and 1716.62 and 2287.49; AUMCINF_obs (individual mice): 945.518 and 756.201 and 591.051 and 764.612 and 715.375 and 1415.53 and 1084.7 and 1445.93; AUMCINF_pred (individual mice): 944.931 and 753.432 and 590.916 and 764.278 and 715.413 and 1415.38 and 1082.77 and 1445.86; AUMC_%Extrap_obs (individual mice): 25.4794% and 20.837% and 3.3902% and 21.6397% and 12.7428% and 15.3656% and 22.9491% and 23.7174%; AUMC_%Extrap_pred (individual mice): 25.4331% and 20.546% and 3.368% and 21.6055% and 12.7474% and 15.3562% and 22.812% and 23.7133%; AUMClast (individual mice): 704.605 and 598.632 and 571.014 and 599.152 and 624.216 and 1198.03 and 835.77 and 1103; C0 (individual mice): 5541.15 and 7579.63 and 9597.07 and 4839.8 and 10091.7 and 11026.6 and 7343.77 and 10935.2; Cl_obs (individual mice): 0.0069 and 0.0053 and 0.0067 and 0.0039 and 0.0058 and 4315.76; Cl_pred (individual mice): 0.0069 and 0.0053 and 0.0067 and 0.0039 and 0.0058 and 4315.77; Clast (individual mice): 3.84 and 3.72 and 0.875 and 2.95 and 1.36 and 6.29 and 6.01 and 8.25; Cmax (individual mice): 4140 and 4180 and 5510 and 3620 and 4500 and 6770 and 4820 and 6270; HL_Lambda_z (individual mice): 3.378 and 2.5225 and 1.5506 and 3.1126 and 2.8768 and 2.157 and 2.4798 and 2.4866; Tlast (individual mice): 8 and 12; Cmax_D (individual mice, dose-normalised, in µg/mL): 0.0004 and 418 and 551 and 362 and 450 and 677 and 482; Lambda_z (individual mice, non-compartmental analysis): 0.2052 and 0.2748 and 0.447 and 0.2227 and 0.2409 and 0.3213 and 0.2795 and 0.2788; MRTINF_obs (individual mice, in h): 0.5462 and 0.5198 and 0.3158 and 0.5092 and 0.478 and 0.5457 and 0.6241 and 0.624; MRTINF_pred (individual mice, in h): 0.5459 and 0.518 and 0.3158 and 0.5089 and 0.478 and 0.5456 and 0.623 and 0.624; MRTlast (individual mice, in h): 0.4115 and 0.4154 and 0.3055 and 0.4025 and 0.4187 and 0.4653 and 0.4869 and 0.4822; Tmax (individual mice, in h): 0.083
